This data set in a line: recombinant barcode read abundance after kanamycin selection (control-corrected) (log10(CPM+1)); higher = more efficient recombination; sequences stand for … in AGTGCAGAGAAAATCGGCCAGTTTTCTCTGCCTGCAGTCCGCATGCCGT…AGATTTATGCAGCGGACTGCCTTTCTCCCAAAGTGATAAACCGGACAGTATCATGGACCGGTTTTCCCGGTAATCCGTATTTGCAAGGTTGGTTTCACT; site = the 11-nt target. The method in brief: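 Pooled oligos, each joining a target to an IS621 bridge RNA target-binding loop, were cloned and co-electroporated with a donor plasmid into E. coli. Selective plates carried chloramphenicol/ampicillin/kanamycin and 0.1 mM IPTG, while chloramphenicol/ampicillin LB agar served as control, with two replicates of each. Recombination efficiency rests on averaged, control-corrected counts per million of barcodes at recombinant junctions, shown as log10(CPM+1).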
“CTATAGACTTGGGTTCTAACCTGTTGCCT (site CTATTGACTAG)”: the “recombinant barcode read abundance (log10)” value turned out to be 0.317.
As for “CTATCCACTTGGGTTCTAACCTGTTGCCT (site CTATCCACTAG)”, the “recombinant barcode read abundance (log10)” value stood at 1.63.
The value for “CTATCCACTTGGGTTCTAACCTGTTGCCT (site CTGTCGACTAG)” was 0.873; that for “CTATGACCTTGGGTTCTAACCTGTTGCCT (site CTATGACCTAA)” was 0.124.
Under “CTATGACCTTGGGTTCTAACCTGTTGCCT (site CTATGACCTAC)” stands 0.23.
Regarding “CTATGACCTTGGGTTCTAACCTGTTGCCT (site CTATGACCTAG)”, the “recombinant barcode read abundance (log10)” value was found to be 1.9.
“CTATGACCTTGGGTTCTAACCTGTTGCCT (site CTATGACCTAT)”: the “recombinant barcode read abundance (log10)” value amounted to 0.104.
The value for “CTATGTGCTTGGGTTCTAACCTGTTGCTT (site CTATGTGCTAA)” was 0.337; that for “CTATGTGCTTGGGTTCTAACCTGTTGCTT (site CTATGTGCTAC)” was 0.37.
The value for “CTATGTGCTTGGGTTCTAACCTGTTGCTT (site CTATGTGCTAG)” was 1.1; that for “CTATGTGCTTGGGTTCTAACCTGTTGCTT (site CTATGTGCTAT)” was 0.746; that for “CTATTAACTTGGGTTCTAACCTGTTGCTA (site ACTCACCCTCC)” was 0.00656.
As to “CTATTAACTTGGGTTCTAACCTGTTGCTA (site CTATTAACTTA)”, the “recombinant barcode read abundance (log10)” value came to 0.328.
The value for “CTATTCCCTTGGGTTCTAACCTGTTGCTG (site CTATTCCCTCA)” was 1.99; that for “CTATTCCCTTGGGTTCTAACCTGTTGCTG (site CTCTTCCCTAA)” was 0.185.
Under “CTATTCGCTTGGGTTCTAACCTGTTGCCT (site CTATTCACTAG)” stands 0.295.
Consider “CTATTCGCTTGGGTTCTAACCTGTTGCCT (site CTATTCCCTAG)”, for which the “recombinant barcode read abundance (log10)” value was found to be 0.0147.
The value for “CTATTCGCTTGGGTTCTAACCTGTTGCCT (site CTATTCGCTAG)” was 1.49; that for “CTATTCGCTTGGGTTCTAACCTGTTGCCT (site CTATTCTCTAG)” was 0.218; that for “CTATTGACTTGGGTTCTAACCTGTTGCCT (site CTATAGACTAG)” was 0.0514.
For “CTATTGACTTGGGTTCTAACCTGTTGCCT (site CTATCGACTAG)”, the “recombinant barcode read abundance (log10)” value came to 0.246.
The value for “CTATTGACTTGGGTTCTAACCTGTTGCCT (site CTATGGACTAG)” was 0.11; that for “CTATTGACTTGGGTTCTAACCTGTTGCCT (site CTATTGACTAG)” was 1.42.
Under “CTATTGTCTTGGGTTCTAACCTGTTGCGC (site CTATTGTCTAC)” stands 0.06.
Regarding “CTATTGTCTTGGGTTCTAACCTGTTGCGC (site CTATTGTCTCC)”, the “recombinant barcode read abundance (log10)” value was 0.0404.
The value for “CTATTGTCTTGGGTTCTAACCTGTTGCGC (site CTATTGTCTGC)” was 2.77; that for “CTATTGTCTTGGGTTCTAACCTGTTGCGC (site CTATTGTCTTC)” was 0.909.
The value for “CTATTTACTTGGGTTCTAACCTGTTGCCT (site CTAATTACTAG)” was 0.0674.
Take “CTATTTACTTGGGTTCTAACCTGTTGCCT (site CTACTTACTAG)”: the “recombinant barcode read abundance (log10)” value was 0.302.
Under “CTATTTACTTGGGTTCTAACCTGTTGCCT (site CTAGTTACTAG)” stands 0.19.
Under “CTATTTACTTGGGTTCTAACCTGTTGCCT (site CTATTTACTAG)” stands 0.411.
As to “CTCAATTCTTGGGTTCTAACCTGTTGCAA (site CTCAATACTTC)”, the “recombinant barcode read abundance (log10)” value is 0.0332.
The value for “CTCAATTCTTGGGTTCTAACCTGTTGCAA (site CTCAATTCTTT)” was 0.0558; that for “CTCAATTCTTGGGTTCTAACCTGTTGCAT (site CTCAATTCTAT)” was 0.812; that for “CTCAATTCTTGGGTTCTAACCTGTTGCAT (site CTCCATTCTAT)” was 0.0304.
Under “CTCAATTCTTGGGTTCTAACCTGTTGCAT (site CTCGATTCTAT)” stands 0.27; under “CTCAATTCTTGGGTTCTAACCTGTTGCAT (site CTCTATTCTAT)”, 0.148.
The value for “CTCATAACTTGGGTTCTAACCTGTTGCCG (site CTCATAACTCG)” was 0.328.
“CTCATAACTTGGGTTCTAACCTGTTGCCG (site CTCTAAACTCG)”: the “recombinant barcode read abundance (log10)” value came out at 0.2.
Under “CTCATATCTTGGGTTCTAACCTGTTGCTT (site CTCATATCTAA)” stands 1.18; under “CTCATATCTTGGGTTCTAACCTGTTGCTT (site GAATGGACTTC)”, 0.0724.
In the case of “CTCCAACCTTGGGTTCTAACCTGTTGCCT (site CGCCCACCTAG)”, the “recombinant barcode read abundance (log10)” value stood at 0.144.
The value for “CTCCAACCTTGGGTTCTAACCTGTTGCCT (site CTCCAACCTAG)” was 1.54.
The value for “CTCCAACCTTGGGTTCTAACCTGTTGCGG (site CTCCAACCTCC)” was 2.14.
Under “CTCCAACCTTGGGTTCTAACCTGTTGCGG (site CTCCAGCCTCC)” stands 0.461; under “CTCCATACTTGGGTTCTAACCTGTTGCCT (site CTCCATACTAG)”, 0.814.
For the sequence “CTCCATACTTGGGTTCTAACCTGTTGCCT (site CTCCATCCTAG)”, the “recombinant barcode read abundance (log10)” value stood at 0.0983.
The value for “CTCCATACTTGGGTTCTAACCTGTTGCCT (site CTCCATGCTAG)” was 0.23; that for “CTCCATACTTGGGTTCTAACCTGTTGCCT (site CTCCATTCTAG)” was 0.0874; that for “CTCCGAACTTGGGTTCTAACCTGTTGCAG (site CTCCGAACTCT)” was 1.12.
For “CTCCGAACTTGGGTTCTAACCTGTTGCAG (site TCATATCCTAG)”, the “recombinant barcode read abundance (log10)” value is 0.174.
Under “CTCCGGACTTGGGTTCTAACCTGTTGCCT (site CTCCGGACTAG)” stands 2.02.
Under “CTCCGGACTTGGGTTCTAACCTGTTGCCT (site CTCCGTACTAG)” stands 0.276; under “CTCCGTACTTGGGTTCTAACCTGTTGCCT (site CTCCGGACTAG)”, 0.0835; under “CTCCGTACTTGGGTTCTAACCTGTTGCCT (site CTCCGTACTAG)”, 0.858.
Under “CTCCTAGCTTGGGTTCTAACCTGTTGCTT (site CTCCGAGCTTA)” stands 0.00954; under “CTCCTAGCTTGGGTTCTAACCTGTTGCTT (site CTCCTAGCTAA)”, 0.277; under “CTCCTCCCTTGGGTTCTAACCTGTTGCCT (site CTCCTCCCTAG)”, 1.29.
With “CTCCTCCCTTGGGTTCTAACCTGTTGCCT (site CTCCTCTCTAG)”, the “recombinant barcode read abundance (log10)” value is 0.275.

(Values after the supplement of paper PMC11208160.)
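Note: IS621 recombinase and bridge RNA in Escherichia coli cells.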
